For assay [1], the system named is SN40R2 (MDM2 amplified, p53 mutated osteosarcoma). As to the kind of experiment: Protocol A: SN40R2 growth inhibition (SRB). Conditions: 72 h.
Method: Protocol A: SJSA-1 and SN40R2 Assays
(§1) Following incubation with the SRB dye at room temperature for 30 min, the plates were washed with 1% acetic acid and left to dry. […] The GI50 was calculated by non-linear regression analysis of the data using Prism v4.0 statistical software.
Another assay has as its system SJSA-1. Nature of the assay: Protocol B: SJSA-1 CellTiter-Glo cell viability.
Assay [2] relates to SJSA-1 (MDM2 amplified, p53 wild-type osteosarcoma). As to the kind of experiment: Protocol A: SJSA-1 growth inhibition (SRB).
Method: Protocol A: SJSA-1 and SN40R2 Assays
as §1
The target of assay [3] is MDM2-p53 interaction (in vitro translated MDM2, biotinylated IP3 peptide) (Homo sapiens, UniProt Q00987). Nature of the assay: MDM2-p53 interaction 96-well plate binding assay (ELISA).
Method: The ELISA assay was performed in streptavidin coated plates which were preincubated with 200 μl per well of 1 μg ml^−1 biotinylated IP3 peptide. The plates were ready to use for MDM2 binding after washing the plate with PBS.
The unbound secondary antibody was removed by washing three times with TBS-Tween. The bound HRP activity was measured by enhanced chemiluminesence (ECL™, Amersham Biosciences) using the oxidation of the diacylhydrazide substrate, luminol, to generate a quantifiable light signal. The percentage of MDM2 inhibition at a given concentration is calculated as the [1−(RLU detected in the compound treated sample−RLU negative DMSO control)÷(RLU of DMSO positive and negative controls)]×100 or as the (RLU detected in the compound treated sample÷RLU of DMSO controls)×100. The IC50 was calculated using a plot of % MDM2 inhibition vs concentration and is the average of two or three independent experiments.
The mark [4] stands for this setting: read-out: SN40R2 IC50 (μM) (Protocol A).
Setting [5] is: Homo sapiens, SJSA-1, 72 h, read-out: SJSA1 IC50 (μM) (Protocol B), SJSA-1, Protocol B (CellTiter-Glo), 72 hrs.
[6] abbreviates: Homo sapiens, SJSA-1, 72 h, read-out: SJSA-1 IC50 (μM) (Protocol A), SJSA-1, Protocol A (SRB), 72 hrs.
The mark [7] stands for this setting: Homo sapiens, SJSA-1, 72 h, read-out: SJSA-1 IC50 (Protocol A), SJSA-1 cells, SRB, 72 hrs.
Setting [8] is: read-out: SJSA1 IC50 (μM) (Protocol B), SJSA-1, Protocol B (CellTiter-Glo), 72 hrs.

Where two headings read alike, the source gives them in different places.

MDM2-p53 interaction (in vitro translated MDM2, biotinylated IP3 peptide), sequence (Q00987 whole entry): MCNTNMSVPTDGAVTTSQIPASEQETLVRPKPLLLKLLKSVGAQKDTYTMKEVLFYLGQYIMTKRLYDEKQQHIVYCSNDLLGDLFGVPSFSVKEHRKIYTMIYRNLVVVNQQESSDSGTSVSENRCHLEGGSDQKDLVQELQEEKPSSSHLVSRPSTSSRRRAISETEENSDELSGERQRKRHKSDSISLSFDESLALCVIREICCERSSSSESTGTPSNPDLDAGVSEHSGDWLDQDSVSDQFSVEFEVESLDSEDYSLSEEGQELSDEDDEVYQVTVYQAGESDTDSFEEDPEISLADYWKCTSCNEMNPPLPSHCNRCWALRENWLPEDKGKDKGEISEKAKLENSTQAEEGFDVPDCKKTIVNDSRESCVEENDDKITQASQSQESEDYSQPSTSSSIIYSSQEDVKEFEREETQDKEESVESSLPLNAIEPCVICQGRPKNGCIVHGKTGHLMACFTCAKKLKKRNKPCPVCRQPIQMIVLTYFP

On to `CCC(O)(c1cc(F)c2c(c1)C(=O)N(Cc1ncc(Cl)cn1)[C@@]2(OCCO)c1ccc(Cl)cc1)C1(F)CCN(C)CC1` (single isomer, unassigned) [Example 565], for which the IC50 in assay [1] (setting [4]) came to 33 µM; in the assay on SJSA-1 (setting [5]), 0.035 µM; in assay [2] (setting [6]) it was 0.045 µM.

Consider `CCC(O)(c1cc(F)c2c(c1)C(=O)N(Cc1ccc(C#N)cn1)[C@@]2(OC)c1ccc(Cl)cc1)[C@H]1CC[C@H](O)CC1` (single isomer, unassigned) [Example 521], for which the IC50 in assay [1] (setting [4]) stood at 37 µM; in the assay with SJSA-1 (setting [5]) it was 0.033 µM; in assay [2] (setting [6]) it was 0.035 µM.

As for `CCC(O)(c1cc(F)c2c(c1)C(=O)N(Cc1ncc(Cl)cn1)[C@@]2(OC[C@@H](C)O)c1ccc(Cl)cc1)C1(F)CCN(C)CC1` (single isomer, unassigned) [Example 572], the IC50 in assay [1] (setting [4]) was determined as 18 µM; in the assay with SJSA-1 (setting [5]), 0.022 µM.

For the molecule `CCC(O)(c1cc(F)c2c(c1)C(=O)N(Cc1ccc(C#N)cn1)[C@@]2(OCCOC)c1ccc(Cl)cc1)c1cn(C)cn1` (single isomer, unassigned) [Example 430], the results for the concentration for half-maximal inhibition (IC50) (with SJSA-1 (setting [5]); in assay [2] (setting [6])) were 0.18 µM and 0.11 µM, respectively.

For the molecule `CC(O)(CO)c1cc(F)c2c(c1)C(=O)N(Cc1ccc(Cl)cn1)[C@@]2(OCC1(CO)CC1)c1ccc(Cl)cc1` (stereo partly drawn) [Example 17, (3R)-3-(4-Chlorophenyl)-2-[(5-chloropyridin-2-yl)methyl]-6-(1,2-dihydroxypropan-2-yl)-4-fluoro-3-({1-[hydroxy(^2H2)methyl]cyclopropyl}(^2H2)methoxy)-2,3-dihydro-1H-isoindol-1-one], the IC50 in assay [2] (read-out: SJSA-1 IC50 (Protocol A), SJSA-1 cells, SRB, 72 hrs) is 0.1 µM.

Regarding `CCC(O)(c1cc(F)c2c(c1)C(=O)N(Cc1ncc(Cl)cn1)[C@@]2(O[C@H]1C[C@@H](O)C1)c1ccc(Cl)cc1)C1(F)CCN(C)CC1` (single isomer, unassigned) [Example 570], the IC50 in the assay with SJSA-1 (setting [5]) was determined as 0.046 µM; in assay [2] (setting [6]), 0.034 µM.

For `CC[C@@](O)(c1cc(F)c2c(c1)C(=O)N(Cc1ncc(Cl)cn1)[C@@]2(OC)c1ccc(Cl)cc1)C1CCN(C2COC2)CC1` [Example 551, (3R)-3-(4-chlorophenyl)-2-[(5-chloropyrimidin-2-yl)methyl]-4-fluoro-6-[(1S)-1-hydroxy-1-[1-(oxetan-3-yl)piperidin-4-yl]propyl]-3-methoxy-2,3-dihydro-1H-isoindol-1-one], the figures for the IC50 in assay [1] (setting [4]) and in assay [2] (setting [6]) were 36 µM and 0.031 µM, respectively.

Turning to `CC[C@@](O)(c1cc(F)c2c(c1)C(=O)N(Cc1ncc(C#N)cn1)[C@@]2(O[C@H]1CCOC1)c1ccc(Cl)cc1)C1CCN(C)CC1` [Example 557, 2-{[(1R)-1-(4-chlorophenyl)-7-fluoro-5-[(1S)-1-hydroxy-1-(1-methylpiperidin-4-yl)propyl]-3-oxo-1-[(3S)-oxolan-3-yloxy]-2,3-dihydro-1H-isoindol-2-yl]methyl}pyrimidine-5-carbonitrile], the IC50 in the assay on SJSA-1 (setting [5]) was 0.037 µM; in assay [2] (setting [6]) it was 0.25 µM.

As for `CCC(O)(c1cc(F)c2c(c1)C(=O)N(Cc1ncc(Cl)cn1)[C@@]2(OCC1(C#N)CC1)c1ccc(Cl)cc1)C1(F)CCN(C)CC1` (single isomer, unassigned) [Example 564], the half-maximal inhibitory concentration (IC50) is 16 µM in assay [1] (setting [4]) and 0.00038 µM with SJSA-1 (setting [5]).

Consider `CCC(O)(c1cc(F)c2c(c1)C(=O)N(Cc1ncc(Cl)cc1O)[C@@]2(OCCO)c1ccc(Cl)cc1)c1cn(C)cn1` (single isomer, unassigned) [Example 443], for which the IC50 in assay [1] (setting [4]) stood at 38 µM; with SJSA-1 (setting [5]), 0.093 µM.

With `[2H]C([2H])(O)C1(C([2H])([2H])O[C@]2(c3ccc(Cl)cc3)c3c(F)cc(C(C)(C)O)cc3C(=O)N2Cc2ncc(C#N)cn2)CC1` [Example 513, 2-{[(1R)-1-(4-chlorophenyl)-7-fluoro-1-({1-[hydroxydideuteromethyl]cyclo-propyl}dideuteromethoxy)-5-(2-hydroxypropan-2-yl)-3-oxo-2,3-dihydro-1H-isoindol-2-yl]methyl}pyrimidine-5-carbonitrile], the IC50 stood at 3.1 nM in assay [3], 0.38 µM with SJSA-1 (setting [5]) and 0.26 µM in assay [2] (setting [6]).

Take `CCC(O)(c1cc(F)c2c(c1)C(=O)N(Cc1ncc(Cl)cn1)[C@@]2(OCCO)c1ccc(Cl)cc1)[C@H]1CC[C@H](O)CC1` (single isomer, unassigned) [Example 517]: the IC50 in assay [2] (setting [6]) turned out to be 0.019 µM.

For `C[C@@H](CO[C@]1(c2ccc(Cl)cc2)c2c(F)cc(C(C)(C)O)cc2C(=O)N1Cc1ccc(Cl)cn1)C(N)=O` [Example 167, (2S)-3-{[(1R)-1-(4-Chlorophenyl)-2-[(5-chloropyridin-2-yl)methyl]-7-fluoro-5-(2-hydroxypropan-2-yl)-3-oxo-2,3-dihydro-1H-isoindol-1-yl]oxy}-2-methylpropanamide], in assay [2] (setting [7]), the concentration for half-maximal inhibition (IC50) amounted to 0.64 µM.

Turning to `CO[C@]1(c2ccc(Cl)cc2)c2ccc(C(C)(O)CN3CC(=O)NC3=O)cc2C(=O)N1Cc1ccc(Cl)cn1` (single isomer, unassigned) [Example 329], the “MDM2 % @ concentration” value in assay [3] (@ 0.30 μM) is 61% @ 0.30. For the same molecule, the inhibition at 30 µM in assay [1] (read-out: SN40R2 (Protocol A) % at concentration) worked out at 8%.

Take `CN1CCC(C(C)(O)c2cc(F)c3c(c2)C(=O)N(Cc2ncc(Cl)cn2)[C@@]3(OCC2(CO)CC2)c2ccc(Cl)cc2)CC1` (single isomer, unassigned) [Example 554]: the IC50 was determined as 0.07 µM in the assay with SJSA-1 (setting [5]) and 0.21 µM in assay [2] (setting [6]).

As for `CCC(O)(c1cc(F)c2c(c1)C(=O)N(Cc1ncc(Cl)cn1)[C@@]2(OCC1(CO)CC1)c1ccc(Cl)cc1)c1cn(C)cn1` (single isomer, unassigned) [Example 477], in assay [2] (setting [6]), the IC50 came out at 0.013 µM.

With `CCC(O)(c1cc(F)c2c(c1)C(=O)N(Cc1ccc(C#N)nc1)[C@@]2(O[C@H]1CCOC1)c1ccc(Cl)cc1)c1cn(C)cn1` (single isomer, unassigned) [Example 431], the IC50 in assay [2] (setting [6]) was found to be 0.11 µM.

`CO[C@]1(c2ccc(Cl)cc2)c2c(F)cc(C(C)(C)O)cc2C(=O)N1Cc1ccc(Cl)cn1` [Example 2, (3R)-3-(4-Chlorophenyl)-2-[(5-chloropyridin-2-yl)methyl]-4-fluoro-6-(2-hydroxypropan-2-yl)-3-methoxy-2,3-dihydro-1H-isoindol-1-one]: the half-inhibitory concentration (IC50) in the assay with SJSA-1 (Homo sapiens, SJSA-1, 72 h, read-out: SJSA1 IC50 (Protocol B), SJSA-1 cells, CellTiter-Glo, 72 hrs) worked out at 3.4 µM; in assay [2] (setting [7]) it was 1.7 µM.

In the case of `CO[C@]1(c2ccc(Cl)cc2)c2ccc(C(C)(O)CN3CCOCC3=O)cc2C(=O)N1Cc1ccc(Cl)cn1` (single isomer, unassigned) [Example 328], the inhibition at 0.1 µM in assay [3] (@ 0.10 μM, read-out: MDM2 % @ concentration) is 42%. For the same molecule, the IC50 in assay [1] (read-out: SN40R2 IC50 (Protocol A)) is 25 µM.

Take `CCC(O)(c1cc(F)c2c(c1)C(=O)N(Cc1ccc(C#N)cn1)[C@@]2(O[C@H]1CCOC1)c1ccc(Cl)cc1)C1(F)CCOCC1` (single isomer, unassigned) [Example 446]: the “MDM2 % @ concentration” value in assay [3] (@ 0.0010 μM) stood at 76% @ 0.0010. The IC50 was found to be 29 µM in assay [1] (setting [4]) and 0.023 µM in the assay on SJSA-1 (setting [8]).

In the case of `CCC(O)(c1cc(F)c2c(c1)C(=O)N(Cc1ccc(C#N)cn1)[C@@]2(O[C@H]1CCOC1)c1ccc(Cl)cc1)c1ccn(C)n1` (single isomer, unassigned) [Example 336], the concentration for half-maximal inhibition (IC50) in assay [1] (setting [4]) worked out at 42 µM; in assay [2] (setting [6]), 0.1 µM.

Regarding `CCC(O)(c1cc(F)c2c(c1)C(=O)N(Cc1ncc(Cl)cn1)[C@@]2(O[C@H]1CCOC1)c1ccc(Cl)cc1)c1cn(C)cn1` (single isomer, unassigned) [Example 475], the IC50 in assay [2] (setting [6]) came to 0.028 µM.

As to `CCC(O)(c1cc(F)c2c(c1)C(=O)N(Cc1ncc(Cl)cn1)[C@@]2(OCC1(C(N)=O)CC1)c1ccc(Cl)cc1)c1cn(C)cn1` (stereo partly drawn) [Example 486, 1-({[(1R)-1-(4-chlorophenyl)-2-[(5-chloropyrimidin-2-yl)methyl]-7-fluoro-5-[1-hydroxy-1-(1-methyl-1H-imidazol-4-yl)propyl]-3-oxo-2,3-dihydro-1H-isoindol-1-yl]oxy}methyl) cyclopropane-1-carboxamide], the half-inhibitory concentration (IC50) in assay [2] (setting [6]) was found to be 0.075 µM.

For `CCC(O)(c1cc(F)c2c(c1)C(=O)N(Cc1ncc(C#N)cn1)[C@@]2(OCC1(C#N)CC1)c1ccc(Cl)cc1)c1cn(C)cn1` (single isomer, unassigned) [Example 462], the IC50 with SJSA-1 (setting [5]) came out at 0.047 µM; in assay [2] (setting [6]), 0.073 µM.

`CCC(O)(c1cc(F)c2c(c1)C(=O)N(Cc1ncc(C#N)cn1)[C@@]2(OCCO)c1ccc(Cl)cc1)[C@H]1CC[C@H](O)CC1` (stereo partly drawn) [Example 510, 2-{[(1R)-1-(4-chlorophenyl)-7-fluoro-5-{1-hydroxy-1-[trans-4-hydroxycyclohexyl]propyl}-1-(2-hydroxyethoxy)-3-oxo-2,3-dihydro-1H-isoindol-2-yl]methyl}pyrimidine-5-carbonitrile]: the concentration for half-maximal inhibition (IC50) with SJSA-1 (setting [5]) is 0.073 µM; in assay [2] (setting [6]) it was 0.084 µM.

On to `CCC(O)(c1cc(F)c2c(c1)C(=O)N(Cc1ccc(C#N)cn1)[C@@]2(O[C@H]1C[C@@H](O)C1)c1ccc(Cl)cc1)[C@H]1CC[C@H](O)CC1` (single isomer, unassigned) [Example 518], for which, in assay [3] (@ 0.0010 μM, read-out: MDM2 % @ concentration), the inhibition at 0.001 µM worked out at 79%. Also, the values for the IC50 (in the assay on SJSA-1 (setting [8]); in assay [2] (setting [6])) were 0.065 µM and 0.058 µM, respectively.

Take `CCC(O)(c1cc(F)c2c(c1)C(=O)N(Cc1ncc(Cl)cn1)[C@@]2(OC)c1ccc(Cl)cc1)C1(F)CCN(C)CC1` (single isomer, unassigned) [Example 563]: the results for the IC50 (in assay [1] (setting [4]); in the assay with SJSA-1 (setting [5])) were 15 µM and 0.027 µM, respectively.
